Like-named read-outs stand apart in the source and are kept apart here.
Columns and labels:
BRAF V600E = target: T1, BRAF V600E (Homo sapiens, UniProt P15056+Q96SW2, V600E); assay: BRAF V600E HiBiT Degradation Assay; assay type: cell-based
T1 construct: knock-in of the HiBiT tag to the endogenous BRAF V600E locus; host or cells: A375.10 (A375 clonal line, CRISPR HiBiT knock-in at the endogenous BRAF V600E locus)
How it was run: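 Endogenous HiBiT knock-in on BRAF V600E in A375 cells (clone A375.10); 11-point half-log series, top 10 μM, 2, 6 or 24 h at 37° C. Lytic HiBiT luminescence, background-subtracted, normalized to DMSO; 4-parameter fit gives DC50, Emax (residual protein) and IP (inflection point).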

A375-NRAS^Q61K cells = assay: CTGlo Cell Viability Assay, A375-NRAS^Q61K (A375.11) cells, 96 hours; assay type: cell-based, human; conditions: Homo sapiens, 96 h, A375.11 (A375-NRAS^Q61K) cells; for Emax: lowest % viability achieved
How it was run: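 A375 cells carrying BRAF V600E and NRAS Q61K were seeded at 250 cells/well with a 10-point half-log dose series (max 10 μM final). After 96 h at 37 °C, viability was read as ATP luminescence (CellTiter-Glo), background-subtracted and normalized to DMSO (100%). GI50 from 4-parameter fit; Emax is the lowest % viability.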

[1] = A375.10 cells, BRAF V600E, 2 hours; residual protein remaining; read-out: HiBiT-Degradation A375.10 BRAF 2 hours Emax
[2] = read-out: HiBiT-Degradation A375.10 BRAF 2 hours DC50; A375.10 cells, BRAF V600E, 2 hours
[3] = read-out: HiBiT-Degradation A375.10 BRAF 2 hours IP; A375.10 cells, BRAF V600E, 2 hours; inflection point
[4] = A375.10 cells, BRAF V600E, 2 hours; inflection point; read-out: HiBiT-Degradation A375.10 BRAF 2 hours IP
[5] = A375.10 cells, BRAF V600E, 2 hours; read-out: HiBiT-Degradation A375.10 BRAF 2 hours DC50

T1 sequence (P15056 whole entry V600E): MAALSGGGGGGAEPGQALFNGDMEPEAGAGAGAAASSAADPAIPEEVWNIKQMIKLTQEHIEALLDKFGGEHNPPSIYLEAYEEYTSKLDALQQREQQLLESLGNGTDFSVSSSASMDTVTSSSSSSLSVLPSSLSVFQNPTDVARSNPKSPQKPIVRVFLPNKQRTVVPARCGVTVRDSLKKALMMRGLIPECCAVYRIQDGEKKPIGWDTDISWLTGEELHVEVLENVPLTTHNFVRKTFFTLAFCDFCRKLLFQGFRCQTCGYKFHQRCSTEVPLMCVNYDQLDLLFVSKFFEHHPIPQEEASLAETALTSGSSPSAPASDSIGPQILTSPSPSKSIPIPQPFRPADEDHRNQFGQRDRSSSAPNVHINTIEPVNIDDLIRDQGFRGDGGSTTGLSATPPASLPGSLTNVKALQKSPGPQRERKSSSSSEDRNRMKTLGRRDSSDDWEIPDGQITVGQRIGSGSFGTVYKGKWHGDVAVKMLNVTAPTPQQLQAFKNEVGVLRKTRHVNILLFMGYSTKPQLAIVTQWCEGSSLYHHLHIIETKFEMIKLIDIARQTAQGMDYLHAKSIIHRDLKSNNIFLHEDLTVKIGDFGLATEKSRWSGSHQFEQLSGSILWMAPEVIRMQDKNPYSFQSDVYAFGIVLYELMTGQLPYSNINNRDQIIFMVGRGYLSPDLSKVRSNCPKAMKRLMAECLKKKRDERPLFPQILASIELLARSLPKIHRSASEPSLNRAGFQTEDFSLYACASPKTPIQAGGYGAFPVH
T1 sequence (Q96SW2 whole entry): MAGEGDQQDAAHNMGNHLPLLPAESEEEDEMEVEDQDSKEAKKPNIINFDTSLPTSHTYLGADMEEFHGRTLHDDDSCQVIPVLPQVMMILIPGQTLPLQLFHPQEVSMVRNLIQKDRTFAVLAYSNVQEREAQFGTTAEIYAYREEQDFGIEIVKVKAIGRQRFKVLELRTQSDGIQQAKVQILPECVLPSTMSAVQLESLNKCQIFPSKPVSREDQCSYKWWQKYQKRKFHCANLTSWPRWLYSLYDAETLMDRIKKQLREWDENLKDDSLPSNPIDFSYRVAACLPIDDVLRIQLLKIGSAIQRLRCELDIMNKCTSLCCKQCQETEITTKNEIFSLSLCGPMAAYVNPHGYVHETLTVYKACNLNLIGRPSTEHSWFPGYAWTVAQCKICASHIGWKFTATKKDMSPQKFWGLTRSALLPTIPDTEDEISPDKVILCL
T1 sequence (Q16531 whole entry partner): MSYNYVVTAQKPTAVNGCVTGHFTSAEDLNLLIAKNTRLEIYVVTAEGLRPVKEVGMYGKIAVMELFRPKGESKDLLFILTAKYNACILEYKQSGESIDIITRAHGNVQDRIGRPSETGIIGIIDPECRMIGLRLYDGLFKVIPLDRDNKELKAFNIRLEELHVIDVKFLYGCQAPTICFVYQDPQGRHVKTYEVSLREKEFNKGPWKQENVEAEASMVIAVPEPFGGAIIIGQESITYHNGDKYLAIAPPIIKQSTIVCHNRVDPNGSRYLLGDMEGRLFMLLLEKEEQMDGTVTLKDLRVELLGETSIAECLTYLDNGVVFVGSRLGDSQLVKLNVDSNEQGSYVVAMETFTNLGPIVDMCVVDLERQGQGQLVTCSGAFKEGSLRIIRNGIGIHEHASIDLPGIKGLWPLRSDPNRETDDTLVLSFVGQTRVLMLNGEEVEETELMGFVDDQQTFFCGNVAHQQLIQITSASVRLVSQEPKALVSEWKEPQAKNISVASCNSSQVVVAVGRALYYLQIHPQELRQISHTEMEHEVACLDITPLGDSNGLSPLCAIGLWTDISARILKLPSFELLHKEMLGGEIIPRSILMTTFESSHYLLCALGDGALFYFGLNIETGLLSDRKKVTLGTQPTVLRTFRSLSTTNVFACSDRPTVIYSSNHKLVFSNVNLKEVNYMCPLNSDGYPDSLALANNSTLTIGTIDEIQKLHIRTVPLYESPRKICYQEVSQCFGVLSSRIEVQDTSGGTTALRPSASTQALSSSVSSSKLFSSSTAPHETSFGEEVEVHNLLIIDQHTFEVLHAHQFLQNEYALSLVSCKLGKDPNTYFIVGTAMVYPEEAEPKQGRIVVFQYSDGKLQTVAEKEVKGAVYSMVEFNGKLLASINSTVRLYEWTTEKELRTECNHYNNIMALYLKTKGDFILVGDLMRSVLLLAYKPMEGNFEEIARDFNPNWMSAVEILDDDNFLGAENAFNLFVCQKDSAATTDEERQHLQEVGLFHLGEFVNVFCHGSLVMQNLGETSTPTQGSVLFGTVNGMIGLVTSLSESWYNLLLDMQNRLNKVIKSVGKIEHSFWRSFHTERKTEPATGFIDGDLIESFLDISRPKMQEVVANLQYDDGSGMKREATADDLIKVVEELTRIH

| Compound | Emax (BRAF V600E; [1]) [%] | DC50 (BRAF V600E; [2]) [µM] | DC50 (BRAF V600E; [3]) [µM] | GI50 (A375-NRAS^Q61K cells) [µM] | Emax (A375-NRAS^Q61K cells) [%] | DC50 (BRAF V600E; [4]) [µM] | DC50 (BRAF V600E; [5]) [µM] |
| --- | --- | --- | --- | --- | --- | --- | --- |
| Cn1nc(N2CCC(=O)NC2=O)c2cc(F)c(N3CC4(CC(N5CCC6(CC5)C[C@@H](n5cnc7ccc(Oc8c(F)ccc(NS(=O)(=O)N9CCC%10(CC%10)C9)c8C#N)cc7c5=O)CO6)C4)C3)cc21 [Compound 245, N-[2-cyano-3-[3-[(3R)-8-[2-[3-(2,4-dioxohexahydropyrimidin-1-yl)-5-fluoro-1-methyl-indazol-6-yl]-2-azaspiro[3.3]heptan-6-yl]-1-oxa-8-azaspiro[4.5]decan-3-yl]-4-oxo-quinazolin-6-yl]oxy-4-fluoro-phenyl]-5-azaspiro[2.4]heptane-5-sulfonamide] | 50 to 90 | < 1 | < 1 | < 1 | 50 to 90 |  |  |
| CC(C)S(=O)(=O)Nc1ccc(F)c(Oc2ccc3ncc(C4CC5(CCN(C6CC7(C6)CN(c6cc8c(cc6F)c(N6CCC(=O)NC6=O)nn8C)C7)CC5)C4)nc3c2)c1C#N (centres unmarked) [Compound 247, N-[2-cyano-3-[3-[7-[2-[3-(2,4-dioxohexahydropyrimidin-1-yl)-5-fluoro-1-methyl-indazol-6-yl]-2-azaspiro[3.3]heptan-6-yl]-7-azaspiro[3.5]nonan-2-yl]quinoxalin-6-yl]oxy-4-fluoro-phenyl]propane-2-sulfonamide] | < 50 | < 1 | < 1 | 1 to 10 | 50 to 90 |  |  |
| CCN(C)S(=O)(=O)Nc1ccc(F)c(Oc2ccc3ncn([C@H]4COC5(CCN(CC6CCN(c7cc8c(cc7F)c(N7CCC(=O)NC7=O)nn8C)CC6)CC5)C4)c(=O)c3c2)c1C#N [Compound 251, (3R)-3-[6-[2-cyano-3-[[ethyl(methyl)sulfamoyl]amino]-6-fluoro-phenoxy]-4-oxo-quinazolin-3-yl]-8-[[1-[3-(2,4-dioxohexahydropyrimidin-1-yl)-5-fluoro-1-methyl-indazol-6-yl]-4-piperidyl]methyl]-1-oxa-8-azaspiro[4.5]decane] | 50 to 90 |  |  | 1 to 10 | 50 to 90 | < 1 | < 1 |
| Cn1nc(N2CCC(=O)NC2=O)c2cc(F)c(N3CC4(CC(N5CCC6(CC5)C[C@@H](n5cnc7ccc(Oc8c(F)ccc(NS(=O)(=O)C9CCOCC9)c8C#N)cc7c5=O)CO6)C4)C3)cc21 [Compound 252, N-[2-cyano-3-[3-[(3R)-8-[2-[3-(2,4-dioxohexahydropyrimidin-1-yl)-5-fluoro-1-methyl-indazol-6-yl]-2-azaspiro[3.3]heptan-6-yl]-1-oxa-8-azaspiro[4.5]decan-3-yl]-4-oxo-quinazolin-6-yl]oxy-4-fluoro-phenyl]tetrahydropyran-4-sulfonamide] | 50 to 90 |  |  | > 10 | 50 to 90 | < 1 | > 10 |
| CCN(C)S(=O)(=O)Nc1ccc(F)c(Oc2ccc3ncn(C4CC5(CCN(C6CCN(c7cc8c(cc7F)c(N7CCC(=O)NC7=O)nn8C)CC6(F)F)CC5)C4)c(=O)c3c2)c1C#N (centres unmarked) [Compound 253, 6-[2-cyano-3-[[ethyl(methyl)sulfamoyl]amino]-6-fluoro-phenoxy]-3-[7-[1-[3-(2,4-dioxohexahydropyrimidin-1-yl)-5-fluoro-1-methyl-indazol-6-yl]-3,3-difluoro-4-piperidyl]-7-azaspiro[3.5]nonan-2-yl]-4-oxo-quinazoline] | 50 to 90 |  |  | 1 to 10 | < 50 | < 1 | > 10 |
| CCN(C)S(=O)(=O)Nc1ccc(F)c(Oc2ccc3ncn(C4CC5(CCN(CC6CCN(c7cc8c(cc7F)c(N7CCC(=O)NC7=O)nn8C)CC6)CC5)C4)c(=O)c3c2)c1C#N [Compound 255, 6-[2-cyano-3-[[ethyl(methyl)sulfamoyl]amino]-6-fluoro-phenoxy]-3-[7-[[1-[3-(2,4-dioxohexahydropyrimidin-1-yl)-5-fluoro-1-methyl-indazol-6-yl]-4-piperidyl]methyl]-7-azaspiro[3.5]nonan-2-yl]-4-oxo-quinazoline] | 50 to 90 |  |  | > 10 | 50 to 90 | < 1 | < 1 |
| CCN(C)S(=O)(=O)Nc1ccc(F)c(Oc2ccc3ncc(C4CC5(CCN(C6CCN(c7cc8c(cc7F)c(N7CCC(=O)NC7=O)nn8C)CC6)CC5)C4)nc3c2)c1C#N [Compound 256, 7-[2-cyano-3-[[ethyl(methyl)sulfamoyl]amino]-6-fluoro-phenoxy]-2-[7-[1-[3-(2,4-dioxohexahydropyrimidin-1-yl)-5-fluoro-1-methyl-indazol-6-yl]-4-piperidyl]-7-azaspiro[3.5]nonan-2-yl]quinoxaline] | < 50 |  |  | < 1 | 50 to 90 | < 1 | < 1 |
| CCN(C)S(=O)(=O)Nc1ccc(F)c(Oc2ccc3ncn(CC4CCN(C5CC6(C5)CN(c5cc7c(cc5F)c(N5CCC(=O)NC5=O)nn7C)C6)CC4)c(=O)c3c2)c1C#N [Compound 258, 6-[2-cyano-3-[[ethyl(methyl)sulfamoyl]amino]-6-fluoro-phenoxy]-3-[[1-[2-[3-(2,4-dioxohexahydropyrimidin-1-yl)-5-fluoro-1-methyl-indazol-6-yl]-2-azaspiro[3.3]heptan-6-yl]-4-piperidyl]methyl]-4-oxo-quinazoline] | 50 to 90 |  |  | > 10 | 50 to 90 | < 1 | 1 to 10 |
| Cn1nc(N2CCC(=O)NC2=O)c2cc(F)c(N3CC4(CC(N5CCC6(CC5)CC(n5cnc7ccc(Oc8c(F)ccc(NS(=O)(=O)N9CCOCC9)c8C#N)cc7c5=O)C6)C4)C3)cc21 [Compound 262, N-[2-cyano-3-[3-[7-[2-[3-(2,4-dioxohexahydropyrimidin-1-yl)-5-fluoro-1-methyl-indazol-6-yl]-2-azaspiro[3.3]heptan-6-yl]-7-azaspiro[3.5]nonan-2-yl]-4-oxo-quinazolin-6-yl]oxy-4-fluoro-phenyl]morpholine-4-sulfonamide] | < 50 |  |  | < 1 | 50 to 90 | < 1 | < 1 |
| Cn1nc(N2CCC(=O)NC2=O)c2cc(F)c(N3CC4(CC(N5CCC6(CC5)CC(n5cnc7ccc(Oc8c(F)ccc(NS(=O)(=O)C9CCOCC9)c8C#N)cc7c5=O)C6)C4)C3)cc21 [Compound 263, N-[2-cyano-3-[3-[7-[2-[3-(2,4-dioxohexahydropyrimidin-1-yl)-5-fluoro-1-methyl-indazol-6-yl]-2-azaspiro[3.3]heptan-6-yl]-7-azaspiro[3.5]nonan-2-yl]-4-oxo-quinazolin-6-yl]oxy-4-fluoro-phenyl]tetrahydropyran-4-sulfonamide] | < 50 | < 1 | < 1 | > 10 | 50 to 90 |  |  |
| CCN(C)S(=O)(=O)Nc1ccc(F)c(Oc2ccc3ncn(CC4CCN(C5CCN(c6cc7c(cc6F)c(N6CCC(=O)NC6=O)nn7C)CC5)CC4)c(=O)c3c2)c1C#N [Compound 264, 6-[2-cyano-3-[[ethyl(methyl)sulfamoyl]amino]-6-fluoro-phenoxy]-3-[[1-[1-[3-(2,4-dioxohexahydropyrimidin-1-yl)-5-fluoro-1-methyl-indazol-6-yl]-4-piperidyl]-4-piperidyl]methyl]-4-oxo-quinazoline] | < 50 |  |  | 1 to 10 | 50 to 90 | < 1 | < 1 |
| Cn1nc(N2CCC(=O)NC2=O)c2cc(F)c(N3CC4(CC(N5CCC6(CC5)CC(c5cnc7ccc(Oc8c(F)ccc(NS(=O)(=O)N9CC[C@@H](F)C9)c8C#N)cc7n5)C6)C4)C3)cc21 [Compound 265, (3R)-N-[2-cyano-3-[3-[7-[2-[3-(2,4-dioxohexahydropyrimidin-1-yl)-5-fluoro-1-methyl-indazol-6-yl]-2-azaspiro [3.3]heptan-6-yl]-7-azaspiro [3.5]nonan-2-yl]quinoxalin-6-yl]oxy-4-fluoro-phenyl]-3-fluoro-pyrrolidine-1-sulfonamide] | < 50 | < 1 | < 1 | < 1 | < 50 |  |  |
| CCN(C)S(=O)(=O)Nc1ccc(F)c(Oc2ccc3ncn(C4CC5(CCN(C6CC7(CCN(c8cc9c(cc8F)c(N8CCC(=O)NC8=O)nn9C)CC7)C6)C5)C4)c(=O)c3c2)c1C#N (centres unmarked) [Compound 266, 6-[2-cyano-3-[[ethyl(methyl)sulfamoyl]amino]-6-fluoro-phenoxy]-3-[6-[7-[3-(2,4-dioxohexahydropyrimidin-1-yl)-5-fluoro-1-methyl-indazol-6-yl]-7-azaspiro[3.5]nonan-2-yl]-6-azaspiro[3.4]octan-2-yl]-4-oxo-quinazoline] | 50 to 90 |  |  | > 10 | 50 to 90 | < 1 | < 1 |
